In patent publication US7169925B2, “Indole derivatives as interleukin-4 gene expression inhibitors” (Aventis Pharmaceuticals Inc., priority 2002, dated 2007):
Counter-ions that a name gives are not always drawn. Starred links: 1 amine or outer side, 2 acyl side, 3 side chain; linkers in the order of their positions; H or OH if unused. Positions of bridges follow the written chain, without caps; N, C: chain ends. Non-standard residues stand in square brackets, D forms with d. Residues, ends and D or L forms follow the SMILES beside them. Chains are numbered I, II in the order given. Actinocin(9to1) = Cc1c2oc3c(C)ccc(C(=O)[*:1])c3nc-2c(C(=O)[*:2])c(N)c1=O; NMeV = CN[C@H](C(=O)O)C(C)C; Sar = CNCC(=O)O

Key:
[1] = tested on: Swiss 3T3 fibroblasts; assay: In vitro cytotoxicity assay on contact inhibited, non-dividing 3T3 fibroblasts (MTS); type: cell-based
Procedure: Other toxicity assays may be used.
Any compound killing 3T3 fibroblast cells was omitted from further studies.
Contact inhibited Swiss 3T3 fibroblasts are purchased from ATCC.
All compound dilutions are assayed in triplicate. […] Cells are returned to the incubator for 2 days.
Media is added to blank wells for background calculations.
Note that starting concentration of CsA was 1 μM.

[2] = Oral bioavailability (statement); type: in vivo
[3] = Solubility (statement); type: physicochemical
[4] = Sheep asthma model (Ascaris suum antigen challenge, specific lung resistance, PC400); type: in vivo
Procedure: Briefly, transpulmonary pressure, pulmonary resistance (RL), specific lung resistance (SRL airway hyper reactivity, airway responsiveness, are determined.
Venous blood samples (˜5 ml) are obtained from a peripheral leg vein or the jugular vein for pharmacokinetic data. Measurement of Airway Mechanics: The unsedated sheep are restrained in a cart in the prone position with their heads immobilized. After topical anesthesia of the nasal passages with 2% lidocaine solution, a balloon catheter is advanced through one nostril into the lower esophagus. The animals are […] with a cuffed endotracheal tube through the other nostril using a flexible fiberoptic bronchoscope as a guide. (The cuff of the endotracheal tube is inflated only for the measurement of airway mechanics and during aerosol challenges to prevent undue discomfort. This procedure has no effect on airway mechanics). Pleural pressure is estimated with the esophageal balloon catheter (filled with one ml of air) which is positioned 5–10 cm from the gastroesophageal junction. In this position the end expiratory pleural pressure ranges between −2 and −5 cm H2O. Once the balloon is placed, it is secured so that it remains in position for the duration of the experiment. Lateral pressure in the trachea is measured with a sidehole catheter (inner dimension, 2.5 mm) advanced through and positioned distal to the tip of the endotracheal tube. Transpulmonary pressure, the difference between tracheal and pleural pressure, is measured with a differential pressure transducer catheter system. […] The signals of flow and transpulmonary pressure is recorded on an oscilloscope recorder which is linked to a computer for on-line calculation of RL from transpulmonary pressure, respiratory volume (obtained by digital integration) and flow. […] Immediately after the measurement of RL, thoracic gas volume (Vtg) is measured in a constant volume body plethysmograph to obtain specific lung resistance (SRL=RL·Vtg) in L×cm H2O/LPS. […]

[5] = 3 mg/kg aerosol 30 min before antigen challenge, 2 sheep (FIG. 3A)

Row | Structure (SMILES) | melting point | also measured
1 | Cn1c(C(=O)O)c(Nc2ccncc2)c2ccccc21.O=C(O)/C=C\C(=O)O | 192 to 194 °C (dec.) | –
2 | O=C(O)c1[nH]c2cccc(F)c2c1Nc1ccncc1 (as salt: trifluoroacetate) | 231 to 234 °C (dec.) | –
3 | COc1ccc2[nH]c(C(=O)O)c(Nc3ccncc3)c2c1 (as salt: trifluoroacetate) | 211 to 213 °C | –
4 | Cn1c(C(=O)O)c(Nc2ccncc2)c2c(F)cccc21 (as salt: trifluoroacetate) [Example 31, 4-Fluoro-1-Methyl-3-(4-pyridinylamino)-1H-indole-2-carboxylic acid Trifluoroacetate Salt] | 197 to 199 °C | –
5 | Cc1c2oc3c(C)ccc(C(=O)N[C@@H]4C(=O)N[C@H](C(C)C)C(=O)N5CCC[C@H]5C(=O)N(C)CC(=O)N(C)[C@@H](C(C)C)C(=O)O[C@@H]4C)c3nc-2c(C(=O)N[C@@H]2C(=O)N[C@H](C(C)C)C(=O)N3CCC[C@H]3C(=O)N(C)CC(=O)N(C)[C@@H](C(C)C)C(=O)O[C@@H]2C)c(N)c1=O [Actinomycin D] (I: T[dV]P[Sar][NMeV] / II: T[dV]P[Sar][NMeV]; ester I:1-I:C, II:1-II:C; linker I:N-II:N via Actinocin(9to1)) | – | viability of quiescent 3T3 cells, % control ([1]; 0.001 μM, 2 day incubation): 79.0 % control; toxic effects on quiescent 3T3 cells (in words) ([1]; non-dividing 3T3 cells): effected the viability
6 | C[C@@H]1C[C@H]2[C@@H]3CCC4=CC(=O)C=C[C@]4(C)[C@@]3(F)[C@@H](O)C[C@]2(C)[C@@]1(O)C(=O)CO [Dexamethasone] | – | viability of quiescent 3T3 cells, % control ([1]; mouse, 2 days, 0.001 μM): 100.0 % control
7 | CC(C)(C)OC(=O)c1[nH]c2cccc(F)c2c1Nc1ccncc1 [Example 17, 4-fluoro-3-(4-pyridinylamino)-1H-indole-2-carboxylic tert-butyl ester] | 210 to 212 °C | –
8 | COc1ccc2[nH]c(C(=O)OC(C)(C)C)c(Nc3ccncc3)c2c1 [Example 21, 5-methoxy-3-(4-pyridinylamino)-1H-indole-2-carboxylic tert-butyl ester] | 217 to 219 °C | –
9 | CCOC(=O)c1c(Nc2ccncc2)c2ccc(Cl)cc2n1C [Example 27, 6-Chloro-1-methyl-3-(4-pyridinylamino)-1H-indole-2-carboxylic ethyl ester] | 154 to 155 °C | –
10 | O=C(O)c1[nH]c2ccccc2c1Nc1ccncc1 [Example 28, 3-(4-Pyridinylamino)-1H-indole-2-carboxylic acid] | – | oral bioavailability (in words) [2]: low oral bioavailability; solubility (in words) [3]: relatively low solubility; antigen-induced early bronchial response: acute increase in specific lung resistance (SRL) [4, 5]: did not affect; antigen-induced late bronchial response (SRL) [4, 5]: blocked the late response; post challenge airway responsiveness (decrease of PC400 after antigen challenge) ([4]; 3 mg/kg, 2 sheep (FIG. 3B)): prevented this effect
11 | CCOC(=O)c1c(Nc2ccncc2)c2ccc(Cl)cc2n1CC(=O)N(CC)CC [Example 34, 6-Chloro-1-diethylcarbamoylmethyl-3-(pyridin-4-ylamino)-1H-indole-2-carboxylic acid ethyl ester] | 212 to 214 °C | –
12 | CN(C(=O)c1ccc(Cl)cc1)c1c(C(=O)O)[nH]c2cc(Cl)cc(Cl)c12 [Example 80, 3-((4-chlorobenzoyl)methylamino)-4,6-dichloro-1H-indole-2-carboxylic acid] | 279 to 283 °C | –
13 | O=C(Nc1c(C(=O)O)[nH]c2cc(Cl)cc(Cl)c12)c1ccccc1Cc1ccccc1 [Example 87, 3-((2-Benzylbenzoyl)amino)-4,6-dichloro-1H-indole-2-carboxylic acid] | 234 to 235 °C | –
14 | CN(C(=O)c1cccc(F)c1)c1c(C(=O)O)[nH]c2cc(Cl)cc(Cl)c12 [Example 88, 3-((3-Fluorobenzoyl)methylamino)-4,6-dichloro-1H-indole-2-carboxylic acid] | 270 to 280 °C | –
15 | NC(=O)c1[nH]c2ccccc2c1Nc1ccncc1 [Example 128, 3-(Pyridin-4-ylamino)-1H-indole-2-carboxamide] | 230 °C (dec.) | –
16 | CN(Cc1cnc2nc(N)nc(N)c2n1)c1ccc(C(=O)N[C@@H](CCC(=O)O)C(=O)O)cc1 [Methotrexate] | – | viability of quiescent 3T3 cells, % control ([1]; mouse, 2 days, 0.03 μM): 100.0 % control
